The results in this text go back to US20240239861A1, “GLUCAGON-RECEPTOR SELECTIVE POLYPEPTIDES AND METHODS OF USE THEREOF” (i2O Therapeutics, Inc., priority 2016, published 2024).

As a reminder, the pEC50 is the negative decadic logarithm of the EC50, by convention in mol/L.

pEC50: −log10 of the molar value. Read-outs that look alike come from different tables or passages of the source. *1 amine or outer side, *2 acyl side, *3 side chain or, on linkers, in order; H or OH if unused. Where a SMILES comes first, the peptide text is derived from it. Side-chain parts run from the residue outwards. [ ]: non-standard residue; d: D form. The star is where a group is joined. γGlu = O=C(O)[C@H](CCC(=O)[*:2])N[*:1]; Palmitoyl = CCCCCCCCCCCCCCCC(=O)*; Aib = CC(C)(N)C(=O)O

Experiment [1] concerns the target human GCGR (Homo sapiens, UniProt P47871). As to the kind of experiment: Peptide-receptor mediated cAMP accumulation (LANCE Ultra cAMP) in CHO-K1 cells transfected with human GCGR. Format: cell-based. The settings on record: for pEC50: Table 3; for EC50: read-out: GluR pEC50 (converted). (Cyclic AMP is a second messenger, typically raised through Gs and lowered through Gi signalling.)

Experiment [2] deals with human GLP-1R (Homo sapiens, UniProt P43220). The experiment is described as follows: Peptide-receptor mediated cAMP accumulation (LANCE Ultra cAMP) in CHO-K1 cells transfected with human GLP-1R. Format: cell-based. The settings on record: for pEC50: hGLP1 pEC50 (cAMP mean (n = 3): 11 point curve starting at 1 nM, Table 3); for EC50: Table 7, GLP-1R, read-out: GLP-1R pEC50 (converted).
Chain of human GLP-1R (P43220 24-463): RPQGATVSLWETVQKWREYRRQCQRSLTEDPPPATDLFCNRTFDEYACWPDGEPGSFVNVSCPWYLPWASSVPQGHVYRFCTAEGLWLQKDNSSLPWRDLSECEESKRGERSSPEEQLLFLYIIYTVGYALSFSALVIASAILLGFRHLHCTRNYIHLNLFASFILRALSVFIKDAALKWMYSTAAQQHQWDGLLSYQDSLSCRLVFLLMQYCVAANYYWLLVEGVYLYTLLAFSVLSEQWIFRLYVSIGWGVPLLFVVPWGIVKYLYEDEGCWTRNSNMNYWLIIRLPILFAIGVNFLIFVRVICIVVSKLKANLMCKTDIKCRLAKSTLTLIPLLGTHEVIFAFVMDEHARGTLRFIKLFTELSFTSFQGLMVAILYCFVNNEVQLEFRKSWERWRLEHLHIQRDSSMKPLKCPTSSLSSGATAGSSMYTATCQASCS

Chain of human GCGR (P47871 26-477): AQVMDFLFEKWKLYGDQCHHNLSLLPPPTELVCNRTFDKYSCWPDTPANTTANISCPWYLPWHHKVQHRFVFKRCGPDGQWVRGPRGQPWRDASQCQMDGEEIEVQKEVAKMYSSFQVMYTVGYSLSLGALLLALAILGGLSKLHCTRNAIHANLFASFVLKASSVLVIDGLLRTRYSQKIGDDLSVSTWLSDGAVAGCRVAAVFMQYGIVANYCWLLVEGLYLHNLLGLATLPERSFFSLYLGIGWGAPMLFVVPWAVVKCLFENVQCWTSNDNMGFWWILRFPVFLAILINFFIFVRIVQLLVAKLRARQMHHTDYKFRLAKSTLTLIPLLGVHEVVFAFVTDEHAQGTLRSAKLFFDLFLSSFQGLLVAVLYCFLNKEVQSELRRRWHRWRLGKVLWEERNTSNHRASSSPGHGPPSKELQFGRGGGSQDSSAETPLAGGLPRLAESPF

In the case of `CC(C)C[C@H](NC(=O)[C@H](Cc1ccc(O)cc1)NC(=O)[C@H](CCCCN)NC(=O)[C@H](CO)NC(=O)[C@H](Cc1ccc(O)cc1)NC(=O)[C@H](CC(=O)O)NC(=O)[C@H](CO)NC(=O)[C@@H](NC(=O)[C@H](Cc1ccccc1)NC(=O)[C@@H](NC(=O)CNC(=O)[C@H](CCC(N)=O)NC(=O)[C@H](CO)NC(=O)[C@@H](N)Cc1ccc(O)cc1)[C@@H](C)O)[C@@H](C)O)C(=O)N[C@@H](CC(=O)O)C(=O)N[C@@H](CO)C(=O)N[C@@H](C)C(=O)N[C@@H](CCCNC(=N)N)C(=O)N[C@@H](C)C(=O)N[C@@H](CCC(N)=O)C(=O)N[C@@H](CCC(=O)O)C(=O)N[C@@H](Cc1ccccc1)C(=O)N[C@H](C(=O)N[C@@H](CCCCN)C(=O)N[C@@H](Cc1c[nH]c2ccccc12)C(=O)N[C@@H](CC(C)C)C(=O)N[C@@H](CCC(=O)O)C(=O)N[C@@H](CC(=O)O)C(=O)N[C@@H](CCC(=O)O)C(=O)N1CCC[C@H]1C(=O)N[C@@H](CCCCN)C(=O)N[C@@H](CO)C(=O)N[C@@H](CCCCN)C(=O)N[C@@H](C)C(=O)N1CCC[C@H]1C(=O)N1CCC[C@H]1C(=O)N1CCC[C@H]1C(=O)N[C@@H](CO)C(=O)O)C(C)C` [Compound A82] (H-YSQGTFTSDYSKYLDSARAQEFVKWLEDEPKSKAPPPS-OH; N-terminus assumed), the pEC50 was 11.00 in experiment [1] and below 9.00 in experiment [2].

For the compound `CC(C)C[C@H](NC(=O)[C@H](Cc1ccc(O)cc1)NC(=O)[C@H](CCCCN)NC(=O)[C@H](CO)NC(=O)[C@H](Cc1ccc(O)cc1)NC(=O)[C@H](CC(=O)O)NC(=O)[C@H](CO)NC(=O)[C@@H](NC(=O)[C@H](Cc1ccccc1)NC(=O)[C@@H](NC(=O)CNC(=O)[C@H](Cc1c[nH]cn1)NC(=O)[C@H](CO)NC(=O)[C@@H](N)Cc1ccc(O)cc1)[C@@H](C)O)[C@@H](C)O)C(=O)N[C@@H](CC(=O)O)C(=O)N[C@@H](CO)C(=O)N[C@@H](C)C(=O)N[C@@H](CCCNC(=N)N)C(=O)N[C@@H](C)C(=O)N[C@@H](CCC(N)=O)C(=O)N[C@@H](CCC(=O)O)C(=O)N[C@@H](Cc1ccccc1)C(=O)N[C@H](C(=O)N[C@@H](CCCCN)C(=O)N[C@@H](Cc1c[nH]c2ccccc12)C(=O)N[C@@H](CC(C)C)C(=O)N[C@@H](CCC(=O)O)C(=O)N[C@@H](CC(=O)O)C(=O)N[C@@H](CCC(=O)O)C(=O)N1CCC[C@H]1C(=O)N[C@@H](CCCCN)C(=O)N[C@@H](CO)C(=O)N[C@@H](CCCCN)C(=O)N[C@@H](CO)C(=O)N1CCC[C@H]1C(=O)N1CCC[C@H]1C(=O)N1CCC[C@H]1C(=O)N[C@@H](CO)C(=O)O)[C@@H](C)O` [Compound A83] (H-YSHGTFTSDYSKYLDSARAQEFTKWLEDEPKSKSPPPS-OH; N-terminus assumed), the pEC50 is 10.20 in experiment [1] and below 9.00 in experiment [2].

On to `CC(C)C[C@H](NC(=O)[C@H](Cc1ccc(O)cc1)NC(=O)[C@H](CCCCN)NC(=O)[C@H](CO)NC(=O)[C@H](Cc1ccc(O)cc1)NC(=O)[C@H](CC(=O)O)NC(=O)[C@H](CO)NC(=O)[C@@H](NC(=O)[C@H](Cc1ccccc1)NC(=O)[C@@H](NC(=O)CNC(=O)[C@H](Cc1c[nH]cn1)NC(=O)[C@H](CO)NC(=O)[C@@H](N)Cc1ccc(O)cc1)[C@@H](C)O)[C@@H](C)O)C(=O)N[C@@H](CC(=O)O)C(=O)N[C@@H](CO)C(=O)N[C@@H](C)C(=O)N[C@@H](CCCNC(=N)N)C(=O)N[C@@H](C)C(=O)N[C@@H](CCC(N)=O)C(=O)N[C@@H](CCC(=O)O)C(=O)N[C@@H](Cc1ccccc1)C(=O)N[C@H](C(=O)N[C@@H](CCCCN)C(=O)N[C@@H](Cc1c[nH]cn1)C(=O)N[C@@H](CC(C)C)C(=O)N[C@@H](CCC(=O)O)C(=O)N[C@@H](CC(=O)O)C(=O)N[C@@H](CCC(=O)O)C(=O)N1CCC[C@H]1C(=O)N[C@@H](CCCCN)C(=O)N[C@@H](CO)C(=O)N[C@@H](CCCCN)C(=O)N[C@@H](CO)C(=O)N1CCC[C@H]1C(=O)N1CCC[C@H]1C(=O)N1CCC[C@H]1C(=O)N[C@@H](CO)C(=O)O)C(C)C` [Compound A84] (H-YSHGTFTSDYSKYLDSARAQEFVKHLEDEPKSKSPPPS-OH; N-terminus assumed), for which the figures for the pEC50 in experiment [1] and in experiment [2] were 9.40 and below 9.00, respectively.

Take `CC(C)C[C@H](NC(=O)[C@H](Cc1ccc(O)cc1)NC(=O)[C@H](CCCCN)NC(=O)[C@H](CO)NC(=O)[C@H](Cc1ccc(O)cc1)NC(=O)[C@H](CC(=O)O)NC(=O)[C@H](CO)NC(=O)[C@@H](NC(=O)[C@H](Cc1ccccc1)NC(=O)[C@@H](NC(=O)CNC(=O)[C@H](CCC(N)=O)NC(=O)[C@H](CO)NC(=O)[C@@H](N)Cc1c[nH]c2ccccc12)[C@@H](C)O)[C@@H](C)O)C(=O)N[C@@H](CC(=O)O)C(=O)NC(C)(C)C(=O)N[C@@H](CCCCN)C(=O)N[C@@H](C)C(=O)N[C@@H](C)C(=O)N[C@@H](CCC(N)=O)C(=O)N[C@@H](CCC(=O)O)C(=O)N[C@@H](Cc1ccccc1)C(=O)N[C@H](C(=O)NC(C)(C)C(=O)N[C@@H](Cc1c[nH]c2ccccc12)C(=O)N[C@@H](CC(C)C)C(=O)N[C@@H](CCC(=O)O)C(=O)N[C@@H](CC(=O)O)C(=O)N[C@@H](CCC(=O)O)C(=O)N1CCC[C@H]1C(=O)N[C@@H](CO)C(=O)N[C@@H](CO)C(=O)NCC(=O)N[C@@H](C)C(=O)N1CCC[C@H]1C(=O)N1CCC[C@H]1C(=O)N1CCC[C@H]1C(=O)N[C@@H](CO)C(=O)O)C(C)C` [Compound A92] (H-WSQGTFTSDYSKYLD[Aib]KAAQEFV[Aib]WLEDEPSSGAPPPS-OH; N-terminus assumed): the pEC50 in experiment [1] is 10.70; in experiment [2] it was below 9.00.

Take `CC(C)C[C@H](NC(=O)[C@H](Cc1ccc(O)cc1)NC(=O)[C@H](CCCCN)NC(=O)[C@H](CO)NC(=O)[C@H](Cc1ccc(O)cc1)NC(=O)[C@H](CC(=O)O)NC(=O)[C@H](CO)NC(=O)[C@@H](NC(=O)[C@H](Cc1ccccc1)NC(=O)[C@@H](NC(=O)CNC(=O)[C@H](CCC(N)=O)NC(=O)[C@H](CO)NC(=O)[C@@H](N)Cc1c[nH]c2ccccc12)[C@@H](C)O)[C@@H](C)O)C(=O)N[C@@H](CC(=O)O)C(=O)NC(C)(C)C(=O)N[C@@H](CCCCN)C(=O)N[C@@H](C)C(=O)N[C@@H](C)C(=O)N[C@@H](CCC(N)=O)C(=O)N[C@@H](CCC(=O)O)C(=O)N[C@@H](Cc1ccccc1)C(=O)N[C@H](C(=O)NC(C)(C)C(=O)N[C@@H](Cc1c[nH]c2ccccc12)C(=O)N[C@@H](CC(C)C)C(=O)N[C@@H](CCC(=O)O)C(=O)N[C@@H](CC(=O)O)C(=O)N[C@@H](CCC(=O)O)C(=O)N1CCC[C@H]1C(=O)N[C@@H](CO)C(=O)N[C@@H](CO)C(=O)NCC(=O)N[C@@H](CCCCN)C(=O)N1CCC[C@H]1C(=O)N1CCC[C@H]1C(=O)N1CCC[C@H]1C(=O)N[C@@H](CO)C(=O)O)C(C)C` [Compound A93] (H-WSQGTFTSDYSKYLD[Aib]KAAQEFV[Aib]WLEDEPSSGKPPPS-OH; N-terminus assumed): the figures for the pEC50 in experiment [1] and in experiment [2] were 10.90 and below 9.00, respectively.

Regarding `CCCCCCCCCCCCCCCC(=O)N[C@@H](CCC(=O)NCCCC[C@H](NC(=O)[C@@H](NC(=O)[C@H](Cc1ccccc1)NC(=O)[C@H](CCC(=O)O)NC(=O)[C@H](CCC(N)=O)NC(=O)[C@H](C)NC(=O)[C@H](Cc1ccc(O)cc1)NC(=O)[C@H](CCCCN)NC(=O)C(C)(C)NC(=O)[C@H](CC(=O)O)NC(=O)[C@H](CC(C)C)NC(=O)[C@H](Cc1ccc(O)cc1)NC(=O)[C@H](CCCCN)NC(=O)[C@H](CO)NC(=O)[C@H](Cc1ccc(O)cc1)NC(=O)[C@H](CC(=O)O)NC(=O)[C@H](CO)NC(=O)[C@@H](NC(=O)[C@H](Cc1ccccc1)NC(=O)[C@@H](NC(=O)CNC(=O)[C@H](Cc1c[nH]cn1)NC(=O)[C@H](CO)NC(=O)[C@@H](N)Cc1ccc(O)cc1)[C@@H](C)O)[C@@H](C)O)C(C)C)C(=O)N[C@@H](Cc1c[nH]c2ccccc12)C(=O)N[C@@H](CC(C)C)C(=O)N[C@@H](CCC(=O)O)C(=O)N[C@@H](CC(=O)O)C(=O)N[C@@H](CCC(=O)O)C(=O)N1CCC[C@H]1C(=O)N[C@@H](CO)C(=O)N[C@@H](CO)C(=O)NCC(=O)N[C@@H](C)C(=O)N1CCC[C@H]1C(=O)N1CCC[C@H]1C(=O)N1CCC[C@H]1C(=O)N[C@@H](CO)C(=O)O)C(=O)O` [Compound B2], the EC50 was 0.00794 nM in experiment [1] and above 1000 nM in experiment [2].

`CCCCCCCCCCCCCCCC(=O)N[C@@H](CCC(=O)NCCCC[C@H](NC(=O)[C@H](CC(=O)O)NC(=O)[C@H](CO)NC(=O)[C@@H](NC(=O)[C@H](Cc1ccccc1)NC(=O)[C@@H](NC(=O)CNC(=O)[C@H](Cc1c[nH]cn1)NC(=O)[C@H](CO)NC(=O)[C@@H](N)Cc1ccc(O)cc1)[C@@H](C)O)[C@@H](C)O)C(=O)N[C@@H](CO)C(=O)N[C@@H](CCCCN)C(=O)N[C@@H](Cc1ccc(O)cc1)C(=O)N[C@@H](CC(C)C)C(=O)N[C@@H](CC(=O)O)C(=O)NC(C)(C)C(=O)N[C@@H](CCCCN)C(=O)N[C@@H](Cc1ccc(O)cc1)C(=O)N[C@@H](C)C(=O)N[C@@H](CCC(N)=O)C(=O)N[C@@H](CCC(=O)O)C(=O)N[C@@H](Cc1ccccc1)C(=O)N[C@H](C(=O)NC(C)(C)C(=O)N[C@@H](Cc1c[nH]c2ccccc12)C(=O)N[C@@H](CC(C)C)C(=O)N[C@@H](CCC(=O)O)C(=O)N[C@@H](CC(=O)O)C(=O)N[C@@H](CCC(=O)O)C(=O)N1CCC[C@H]1C(=O)N[C@@H](CO)C(=O)N[C@@H](CO)C(=O)NCC(=O)N[C@@H](C)C(=O)N1CCC[C@H]1C(=O)N1CCC[C@H]1C(=O)N1CCC[C@H]1C(=O)N[C@@H](CO)C(=O)O)C(C)C)C(=O)O` [Compound B4] (H-YSHGTFTSDK([γGlu-Palmitoyl])SKYLD[Aib]KYAQEFV[Aib]WLEDEPSSGAPPPS-OH): the values for the EC50 in experiment [1] and in experiment [2] were 0.794 nM and above 1000 nM, respectively.
